Literature values, collected in PMC12150326 (The Journal of Organic Chemistry, 2025).
Several values for one entry are separate records, joined by “and”; a condition that tells them apart may be missing. Equal values may be shown once. Read-outs that look alike come from different tables or passages of the source.

What was measured:
Parameters in all cases: method as in NCI-60 database
CAKI-1 = CAKI-1 ref NCI-60 database, cited from earlier work
TK-10 = TK-10 ref NCI-60 database, cited from earlier work
HOP-18 = HOP-18 ref NCI-60 database; cited from earlier work
SNB-75 = SNB-75 ref NCI-60 database, cited from earlier work
UACC-257 = UACC-257 ref NCI-60 database; cited from earlier work
SF-539 = SF-539 ref NCI-60 database, cited from earlier work
NCI-H522 = NCI-H522 ref NCI-60 database, cited from earlier work
RPMI-8226 = RPMI-8226 ref NCI-60 database, cited from earlier work
HS 578T = HS 578T ref NCI-60 database; cited from earlier work
T-47D = T-47D ref NCI-60 database, cited from earlier work
ACHN = ACHN ref NCI-60 database, cited from earlier work
UO-31 = UO-31 ref NCI-60 database, cited from earlier work
DMS 114 = DMS 114 ref NCI-60 database, cited from earlier work
NCI 60 cell lines = details: cited from earlier work; for _MID Log10LC50: mean graph midpoint ref NCI-60 database
786-0 = 786-0 ref NCI-60 database, cited from earlier work
KM20L2 = KM20L2 ref NCI-60 database, cited from earlier work
OVCAR-8 = OVCAR-8 ref NCI-60 database, cited from earlier work
HOP-62 = HOP-62 ref NCI-60 database, cited from earlier work
HCT-15 = HCT-15 ref NCI-60 database, cited from earlier work
[1] = mean graph ref NCI-60 database, listed as 757/1
[2] = mean graph ref NCI-60 database, listed as 757/9

Compound: COc1cc2c(c(OC)c1OC)-c1ccc(OC)c(=O)cc1[C@@H](NC(C)=O)CC2 [Colchicine, (−)-Colchicine]
- Log10LC50 (CAKI-1): > -4.00 Molar
- Log10GI50 (CAKI-1; listed as 757/1): < -8.00 Molar
- Log10TGI (CAKI-1; listed as 757/1): > -4.00 Molar
- Log10GI50 (CAKI-1; listed as 757/9): -6.57 Molar
- Log10TGI (CAKI-1; listed as 757/9): -6.69 Molar
- GI50 (TK-10): > 100000 nM
- Log10GI50 (TK-10): > -4 Molar
- Log10LC50 (TK-10): > -4.00 Molar
- Log10TGI (TK-10): > -4.00 Molar
- Log10GI50 (TK-10; listed as 757/1): > -4.00 Molar
- Log10GI50 (TK-10; listed as 757/9): -7.50 Molar
- Log10GI50 (TK-10; listed as 757/21): -4.66 Molar
- Log10GI50 (HOP-18): > -4.00 Molar
- Log10LC50 (HOP-18): > -4.00 Molar
- Log10TGI (HOP-18): > -4.00 Molar
- GI50 (SNB-75): 910 nM
- Log10GI50 (SNB-75): -6.04 Molar
- Log10LC50 (SNB-75): > -4.00 Molar
- Log10GI50 (SNB-75; listed as 757/1): < -8.00 Molar
- Log10TGI (SNB-75; listed as 757/1): -5.53 Molar
- Log10TGI (SNB-75; listed as 757/9): < -8.00 Molar
- Log10TGI (SNB-75; listed as 757/21): > -4.00 Molar
- GI50 (UACC-257): > 100000 nM
- Log10GI50 (UACC-257): > -4 Molar
- Log10LC50 (UACC-257): > -4.00 Molar
- Log10TGI (UACC-257): > -4.00 Molar
- GI50 (SF-539): 30 nM
- Log10GI50 (SF-539): -7.54 Molar
- Log10GI50 (SF-539; listed as 757/1): -7.48 Molar
- Log10TGI (SF-539; listed as 757/9): -6.82 Molar
- Log10LC50 (SF-539; listed as 757/21): > -4.00 Molar and -4.05 Molar
- GI50 (NCI-H522): 10 nM
- Log10GI50 (NCI-H522): -7.84 Molar
- Log10LC50 (NCI-H522): > -4.00 Molar
- Log10GI50 (NCI-H522; listed as 757/1): -7.64 Molar
- Log10TGI (NCI-H522; listed as 757/1): -7.26 Molar
- Log10TGI (NCI-H522; listed as 757/9): -7.46 Molar
- Log10GI50 (NCI-H522; listed as 757/21): < -8.00 Molar and -7.98 Molar and -7.84 Molar
- GI50 (RPMI-8226): < 10 nM
- Log10GI50 (RPMI-8226): < -8 Molar
- Log10LC50 (RPMI-8226): > -4.00 Molar
- Log10TGI (RPMI-8226): > -4.00 Molar
- Log10GI50 (RPMI-8226; listed as 757/1): < -8.00 Molar
- Log10LC50 (HS 578T): > -4.00 Molar
- GI50 (T-47D): 75700 nM
- Log10GI50 (T-47D): -4.12 Molar
- Log10LC50 (T-47D): > -4.00 Molar
- Log10TGI (T-47D): > -4.00 Molar
- Log10GI50 (T-47D; listed as 757/9): > -4.00 Molar
- Log10GI50 (T-47D; listed as 757/21): -4.21 Molar
- GI50 (ACHN): 372 nM
- Log10GI50 (ACHN): -6.43 Molar
- Log10LC50 (ACHN): > -4.00 Molar
- Log10TGI (ACHN): > -4.00 Molar
- Log10GI50 (ACHN; listed as 757/21): -6.40 Molar and -6.43 Molar
- GI50 (UO-31): 513 nM
- Log10GI50 (UO-31): -6.29 Molar
- Log10LC50 (UO-31): > -4.00 Molar
- Log10TGI (UO-31; listed as 757/9): -6.03 Molar
- Log10TGI (UO-31; listed as 757/21): -4.19 Molar and > -4.00 Molar
- Log10LC50 (DMS 114): > -4.00 Molar
- Log10GI50 (DMS 114; listed as 757/1): -4.75 Molar
- Log10GI50 (DMS 114; listed as 757/21): < -8.00 Molar
- Log10TGI (DMS 114; listed as 757/21): -7.73 Molar and -7.65 Molar
- _MID Log10LC50 (NCI 60 cell lines; listed as 757/1): -4.07 Molar and -4.08 Molar
- _MID Log10LC50 (NCI 60 cell lines; listed as 757/21): -4.0 Molar and -4.12 Molar and -4.01 Molar
- Delta Log10GI50 (NCI 60 cell lines; [1]): 0.39 and 0.68
- Delta Log10LC50 (NCI 60 cell lines; [1]): 3.26 and 3.02
- Delta Log10TGI (NCI 60 cell lines; [1]): 3.04 and 2.76
- Range Log10GI50 (NCI 60 cell lines; [1]): 3.72
- Range Log10LC50 (NCI 60 cell lines; [1]): 3.33 and 3.1
- Range Log10TGI (NCI 60 cell lines; [1]): 3.41
- Range Log10GI50 (NCI 60 cell lines; [2]): 1.41
- Range Log10LC50 (NCI 60 cell lines; [2]): 4.0
- Range Log10TGI (NCI 60 cell lines; mean graph ref NCI-60 database, listed as 757/21): 3.89
- GI50 (786-0): 78 nM
- Log10GI50 (786-0): -7.11 Molar
- Log10LC50 (786-0): > -4.00 Molar
- Log10TGI (786-0): > -4.00 Molar
- Log10GI50 (786-0; listed as 757/9): -7.54 Molar and -7.46 Molar
- Log10GI50 (786-0; listed as 757/21): -7.24 Molar and -7.34 Molar and -7.11 Molar
- Log10GI50 (KM20L2; listed as 757/1): < -8.00 Molar and -7.72 Molar
- Log10LC50 (KM20L2; listed as 757/1): -7.10 Molar
- Log10GI50 (KM20L2; listed as 757/21): -7.77 Molar
- Log10LC50 (KM20L2; listed as 757/21): -7.19 Molar
- Log10TGI (KM20L2; listed as 757/21): -7.48 Molar
- Log10TGI (OVCAR-8; listed as 757/1): > -4.00 Molar
- Log10LC50 (OVCAR-8; listed as 757/9): -7.11 Molar
- Log10LC50 (OVCAR-8; listed as 757/21): > -4.00 Molar
- Log10LC50 (HOP-62): > -4.00 Molar
- Log10TGI (HOP-62): > -4.00 Molar
- Log10GI50 (HOP-62; listed as 757/9): -7.43 Molar
- GI50 (HCT-15): 210 nM
- Log10GI50 (HCT-15): -6.68 Molar
- Log10LC50 (HCT-15; listed as 757/9): -5.60 Molar
- Log10LC50 (HCT-15; listed as 757/21): > -4.00 Molar
